From patent US11866424B2, “Aggregation-induced emission luminogens for photodynamic therapy” (The Hong Kong University of Science and Technology, priority 2020, dated 2024)

Key:
[1] = ROS generation measurement with ABDA indicator under white light; conditions: 1 μM sample, 10 μM ABDA, DMSO/water 1/100, white light 4.2 mW·cm^−2, up to 6 min; compared with Ce6 and Rose Bengal
Procedure: 9,10-Anthracenediyl-bis(methylene)dimalonic acid (ABDA) was employed to detect ROS generation of TFPy, TFVP, TPE-TFPy, and two commercial standard photosensitizer, Rose Bengal, and Ce6 upon light irradiation. The absorbance of each sample (1 μM) was firstly set as blank. Then, 10 μM of ABDA was mixed to each sample (DMSO/water (v:v)=1/100) in a dark room, and the absorbance of sample was measured at once. The sample mixture was then irradiated under white light (4.2 mW/cm^−2) at intervals of 1 min until 6 min. The absorption of ABDA at 378 nm was recorded at various irradiation times to obtain the decay rate of photosensitizing process. The absorbance change of ABDA alone in 6 min light irradiation time was also measured as control.
Preliminary study was conducted by evaluating capability of ROS generation of three AIEgens. 9,10-Anthracenediyl-bis-(methylene)-dimalonic acid (ABDA) whose absorption will decrease once oxidized by ROS was utilized as an indicator. […] Ce6 and Rose Bangel, two well-known commercially available standard photosensitizers, were engaged as comparison.

[2] = UV-Vis and photoluminescence spectroscopy (optical properties, AIE characteristics); format: physicochemical; conditions: for λabs: Absorption maximum in DMSO (TFPy and TPE-TFPy) and H2O (TFVP) solution, 10 μM; for λem (Soln.): Emission maximum in DMSO (TFPy and TPE-TFPy) and H2O (TFVP) solution at 10 μM; for ΦF (Aggr.) / ΦF (Soln.) / ΦF (Solid.): Fluorescence quantum yield; for ΦF (Aggr.): aggregation state in 5% DMSO + 95% Toluene or 5% H2O + 95% THF (TFVP); for ΦF (Soln.): calibrated integrating sphere, DMSO (TFPy, TPE-TFPy) or H2O (TFVP) solution; for ΦF (Solid.) / stokes shifts / λem (Solid.): solid state; for λem (Aggr.): aggregation state in 5% DMSO + 95% Toluene (TFPy and TPE-TFPy) or 5% H2O + 95% THF (TFVP); for Iaggr,max/Isoln: emission intensity in 5% DMSO + 95% Toluene (TFPy, TPE-TFPy) or 5% H2O + 95% THF (TFVP) relative to solution; for ε: solution
Source text: All the chemicals were purchased from Meryer, J&K, or Sigma as received without further purification. Superdry (99.9%) DCM and methanol with molecular sieves were purchased from J&K Scientific. Toluene was distilled from sodium and benzophenone under nitrogen prior to use. Phosphate buffered saline (PBS) was purchased from Thermo Fisher Scientific. ABDA, Ce6 and Rose Bengal were purchased from Sigma-Aldrich and used as received. Cell culture medium and fetal bovine serum (FBS) were purchased from GIBCO (Gran Island, NY, USA). Mitotracker Green, CellMask Green, and LysoTracker Green were purchased from ThermoFisherScientific. 1H NMR (400 MHz), 13C NMR (100 MHz) spectra were recorded on a Bruker ARX 400 Spectrometer with CDCl3 or d6-DMSO as deuterated solvent. High resolution mass spectra (HRMS) were performed on a Finnigan MAT TAQ 7000 mass spectrometer system operating in matrix-assisted laser desorption/ionization time of flight mass spectrometry (MALDI-TOF) mode. UV-Vis absorption and fluorescence spectra were recorded with Milton Roy Spectronic 3000 array spectrophotometer. Fluorescence images of AIEgens in solution and aggregation state were collected on an Olympus BX 41 fluorescence microscope. Cellular fluorescence images were taken using a Zeiss laser scanning confocal microscope (LSM7 DUO) and analyzed using ZEN 2009 software (Carl Zeiss). Theoretical study was carried out on 6-311G* basis set in Gaussian09 using density functional theory (DFT) approximated by ωB97X-D.
The photophysical properties of TFPy, TFVP and TPE-TFPy were characterized by UV-Vis and photoluminescence spectroscopies at the concentration of 10 μM as shown in FIG. 2 and summarized in Table 1. […] Due to different solubility behavior, the AIE characteristics of TFPy and TPE-TFPy were investigated in DMSO/toluene mixture with different toluene fractions, whereas TFVP was measured in H2O/THF mixture (FIGS. 2C and 2D, FIG. 8). Taking TFVP as an example, TFVP was barely emissive when fully dissolved in water. Upon increasing THF fraction, fluorescence emission intensity got boosted accordingly with a 218-time increment when THF fraction reached 95%. […] In addition, upon the increase of THF or toluene as poor solvent, the emission wavelengths of three AIEgens were blue-shifted owing to the decrease of solvent polarity, manifesting TICT attributes, which is again ascribed to their D-A feature.

HeLa cells = assay: HeLa cell imaging / co-localization with commercial organelle probes (CLSM); format: cell-based; conditions: for subcellular organelle visualized after incubation: CLSM, excitation 488 nm; for Pearson's coefficient (co-localization efficiency): co-staining with MitoTracker Green (TFPy), CellMask Green (TFVP), LysoTracker Green (TPE-TFPy)
Procedure: Hela cells were seeded and cultured at 37° C. in a 35 mm glass-bottomed dish. After incubation with TFPy (1 μM), TFVP (5 μM), or TPE-TFPy (2 μM), the cells were washed with PBS three times and subjected to imaging analysis using a Zeiss Laser Scanning Confocal Microscope. All of three AIEgens can be excited with 488 nm filter and the emission filter was 570-740 nm. For co-staining assay, the TFPy, TFVP, and TPE-TFPy loaded Hela cells were subjected to incubation with MitoTracker Green, CellMask Green, and LysoTracker Green, respectively. Hoechst 33258 (5 μM) was also utilized to stain nuclear DNA to assist visualizing. Afterwards, the cells were washed with PBS and then observed with CLSM. The cells were imaged using appropriate excitation and emission filters for each dye. The co-localization efficiency was analyzed with Olympus FV10-ASW software, in which the calculated Pearson's coefficient was 0.90 for TFPy, 0.91 for TFVP, and 0.90 for TPE-TFPy. A stock solution of three AIEgens comprising of 1 μM TFPy, 10 μM TFVP, and 1 μM TPE-TFPy was utilized to incubate with Hela cells, followed by imaging analysis excited with 488 nm filter.
In vitro cellular imaging was carried out to evaluate their subcellular organelle targeting property by confocal laser scanning microscopy (CLSM) using HeLa cell as model cell line. Thanks to the analogous maximum absorption of three AIEgens, fluorescence images can be acquired simultaneously using the same excitation at 488 nm. […] Besides, when HeLa cells were cultured with these three AIEgens simultaneously, all of mitochondria, cell membrane and lysosome were highly emissive (FIG. 3D). It was inferred that the mitochondria-staining behavior of TFPy could be attributed to its high efficiency of electrophoretic transmembrane migration, as well as appropriate binding ability between positively charged pyridinium moiety and the negatively charged interior of the transmembrane potential of mitochondria. The low permeability coefficients resulted from the quite high free energy barrier of TFVP at membrane center could lead to its specific accumulation. In the case of TPE-TFPy, it tends to form nano-sized aggregates in culture media due to the high hydrophobicity, and the in-situ generated aggregates can internalize into lysosome of HeLa cells through endocytosis and specifically light up lysosome upon photoexcitation.

4T1 cells = assay: 4T1 cell imaging / co-localization with commercial organelle probes; format: cell-based; conditions: for organelle towards which strong affinity is exhibited: 4T1 cell line; for Pearson's coefficient (co-localization): 4T1 cells, co-staining with commercial probes
Procedure: Similar co-staining procedure for Hela cell was applied on 4T1 cell. The calculated Pearson's coefficient was 0.90 for TFPy, 0.91 for TFVP, and 0.90 for TPE-TFPy.
Motivated by the excellent targetability and specificity of three diverse organelle-targeting AIEgens, photostability was also carefully investigated as it is an essential parameter to evaluate a fluorescence imaging agent. Photostability assessment was carried out by continuous irradiation and sequential scanning with confocal microscope. […] With HeLa cell imaging and photostability data in hand, additional cellular uptake experiment using 4T1 cell line was performed as preliminary study for in vivo experiment.

HeLa cell = assay: MTT cytotoxicity / PDT assay, HeLa cell line; format: cell-based; conditions: 5 μM, white light 20 min (20 mW/cm^2)
Procedure: 3-(4,5-Dimethylthiazol-2-yl)-2,5-diphenyltetrazolium bromide (MTT) assay was utilized to quantitatively measure the cytotoxicity of TFPy, TFVP, TPE-TFPy, and three in one group based on both Hela cell line and 4T1 cell line. The three in one group was consist of one third concentration of TFPy, TFVP, and TPE-TFPY. Both cancer cell lines were seeded in DMEM media in a 96-well round-bottom microplate with a density of 1×10^4 cells per well. The AIEgens (TFPy, TFVP, TPE-TFPy, and three in one) were added at different concentrations of 0, 0.25, 0.5, 1, 2.5, and 5 μM after replacing the medium, and was incubated with different cell lines respectively for 20 min, followed by irradiation with white light for 20 min (20 mW/cm^2); and another array of plates with cells were kept in the dark as control. After 24 h incubation, 10 uL MTT (5 mg/mL in PBS) was added into each well. 4 hours later, DMSO was added into wells to dissolve the precipitated formazan. Finally, the absorption of each well at 595 nm was recorded via a plate reader (Perkin-Elmer Victor3™). Each trial was performed with 6 wells in parallel.
Cytotoxicity of photosensitizer is a non-negligible factor to take into consideration. […] Consequently, quantitative evaluation of PDT effect was applied on both HeLa Cell and 4T1 cell line through standard methylthiazolyldiphenyltetrazolium bromide (MTT) assay. Each AIEgen and an experimental group named “three in one” were evaluated. The “three in one” group was comprised of one third concentration of each AIEgen (⅓ TFPy, ⅓ TFVP, and ⅓ TPE-TFPy) to assure the overall concentration as same as other experimental groups. […] However, upon irradiation with light for 20 min, HeLa cell suffered severe viability loss with only 10% remained when the “three in one” group was at a concentration of 2.5 μM (FIG. 5C).

SMILES | ROS generation efficacy (decrease of ABDA absorption at 378 nm) [1] | λabs [2] | λem (Soln.) [2] | ΦF (Aggr.) [2] | ΦF (Soln.) [2] | ΦF (Solid.) [2] | λem (Aggr.) [2] | Iaggr,max/Isoln [2] | stokes shifts [2] | λem (Solid.) [2] | ε [2] | subcellular organelle visualized after incubation (HeLa cells) | Pearson's coefficient (co-localization efficiency) (HeLa cells) | organelle towards which strong affinity is exhibited (4T1 cells) | Pearson's coefficient (co-localization) (4T1 cells) | cell viability upon light irradiation (HeLa cell)
C[n+]1ccc(C=Cc2ccc(-c3ccc(N(c4ccccc4)c4ccccc4)cc3)o2)cc1.F[P-](F)(F)(F)(F)F [TFPy] | better than Ce6, but not as efficient as Rose B angel | 485 nm | 686 nm | 10% | 0.4% | 0.5% | 660 nm | 12.6 | ca. 200 nm | 672 nm | 27000 M⁻¹ cm⁻¹ | mitochondria | 0.90 | mitochondria | 0.90 | 58%
C[N+](C)(C)CCC[n+]1ccc(C=Cc2ccc(-c3ccc(N(c4ccccc4)c4ccccc4)cc3)o2)cc1.[Br-].[Br-] [TFVP] | better than Ce6, but not as efficient as Rose B angel | 492 nm | 675 nm | 5% | 0.4% | 0.6% | 672 nm | 218 | ca. 200 nm | 690 nm | 28000 M⁻¹ cm⁻¹ | cell membrane | 0.91 | cellular membrane | 0.91 | 53%
C[n+]1ccc(C=Cc2ccc(-c3ccc(N(c4ccccc4)c4ccc(C(=C(c5ccccc5)c5ccccc5)c5ccccc5)cc4)cc3)o2)cc1.F[P-](F)(F)(F)(F)F [TPE-TFPy] | much higher than Rose Bangel | 490 nm | 672 nm | 4.2% | 0.5% | 1.1% | 664 nm | 26.4 | ca. 200 nm | 683 nm | 31000 M⁻¹ cm⁻¹ | lyso some | 0.90 | lysosome | 0.90 | 15%
